17 compounds from article PMC6270065, “Virtual Screening and Structure-Based Discovery of Indole Acylguanidines as Potent β-secretase (BACE1) Inhibitors” (Molecules, 2013) can be followed below.

The structures appear in SMILES notation. Where two headings read alike, the source gives them in different places.

The assay addresses T1, BACE1 (Homo sapiens, UniProt P56817).
T1 construct: purchased Invitrogen P2985
Description: BACE1 fluorescence resonance energy transfer (FRET) based enzymatic inhibition assay. The format is biochemical. As to conditions: for Inhibition ratio (100 μM): compound concentration 100 μM, Table 1; for inhibition at 100 µM: compound concentration 100 µM; for inhibition ratio: ligand concentration of 100 μM. The protocol: 3.3. Fluorescence Resonance Energy Transfer (FRET) Based Enzymatic Assay
The BACE1 fluorescence resonance energy transfer assay kit was purchased from Invitrogen (Carlsbad, CA, USA, cat. P2985). BACE1 activity assays were carried out following the manufacturer’s protocol. The enzyme, substrate, and compounds were diluted in a reaction buffer (50 mM sodium acetate, pH 4.5) to make 3× working solutions. The assay was carried out in a black 384-well microplate with a final volume of 30 μL which contains each 10 μL of 3× substrate, enzyme, and compound stocks, respectively. The final concentration of DMSO is less than 3% (v/v). The reaction mixture was incubated at 37 °C for 90 min with oscillation. Then, 10 μL of a stop solution (2.5 M sodium acetate) was added to stop the reaction. Finally, the fluorescent intensity of the enzymatic product was measured at Ex/Em = 535 nm/585 nm on a BioTek SYNERGY4 reader (BioTek, Winooski, VT, USA). Triplicate was run for each assay. IC50 values were calculated from the concentration–inhibition curves by nonlinear regression analysis. Eight concentrations were tested for each compound to produce the concentration–inhibition curve.

T1 sequence (P56817 46-501): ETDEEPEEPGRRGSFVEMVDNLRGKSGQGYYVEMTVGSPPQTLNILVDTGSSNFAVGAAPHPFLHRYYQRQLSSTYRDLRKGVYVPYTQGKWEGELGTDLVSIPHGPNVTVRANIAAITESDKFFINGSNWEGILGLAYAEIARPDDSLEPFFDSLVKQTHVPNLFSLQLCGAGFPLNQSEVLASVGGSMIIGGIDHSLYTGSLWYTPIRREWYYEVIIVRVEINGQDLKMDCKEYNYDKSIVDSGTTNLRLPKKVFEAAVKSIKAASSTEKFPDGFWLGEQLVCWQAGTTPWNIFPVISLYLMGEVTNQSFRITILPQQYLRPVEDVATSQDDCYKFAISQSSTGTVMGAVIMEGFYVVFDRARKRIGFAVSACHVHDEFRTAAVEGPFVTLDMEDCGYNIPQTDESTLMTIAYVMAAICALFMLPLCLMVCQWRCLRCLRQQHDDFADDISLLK

Turning to `N=C(NCc1cc(Cl)cc(Cl)c1)NC(=O)Cn1ccc2ccccc21` [Compound 17, N-(N-(3,5-Dichlorobenzyl)carbamimidoyl)-2-(1H-indol-1-yl)acetamide], the IC50 is 8750 ± 1070 nM and the “Inhibition ratio (100 μM)” value came out at 100%.

On to `CC(=O)Nc1c(Cl)cc(CNC(=N)NC(=O)Cn2ccc3cc(Br)ccc32)cc1Cl` [Compound 22, N-(N-(4-Acetamido-3,5-dichlorobenzyl)carbamimidoyl)-2-(5-bromo-1H-indol-1-yl)acetamide], for which, under “Table 2”, the IC50 was 106 ± 13 nM and the inhibition at 100 µM is 109%.

Consider `CC(C)C(=O)Nc1c(Cl)cc(CNC(=N)NC(=O)Cn2ccc3ccccc32)cc1Cl` [Compound 21, N-(4-((3-(2-(1H-Indol-1-yl)acetyl)guanidino)methyl)-2,6-dichlorophenyl)isobutyramide], for which the IC50 was determined as 1720 ± 210 nM and the “Inhibition ratio (100 μM)” value came out at 92.2%.

Regarding `N=C(N)NCCn1ccc2ccccc21` [Compound 4, 1-(2-(1H-indol-1-yl)ethyl)guanidine], the IC50 is above 100000 nM and the inhibition ratio result is “about 42%”.

Take `CC(=O)Nc1c(Cl)cc(CNC(N)=NC(=O)Cn2ccc3ccc(CN(C)S(C)(=O)=O)cc32)cc1Cl` [Compound 28]: under “Table 2”, the IC50 turned out to be 840 ± 101 nM and the inhibition at 100 µM was 100%.

`COc1cccc(CNC(=N)NC(=O)Cn2ccc3ccccc32)c1` [Compound 14, 2-(1H-Indol-1-yl)-N-(N-(3-methoxybenzyl)carbamimidoyl)acetamide]: the “Inhibition ratio (100 μM)” value turned out to be 58.75%.

In the case of `CC(=O)Nc1c(Cl)cc(CNC(=N)NC(=O)Cn2ccc3cc(C#N)ccc32)cc1Cl` [Compound 24, N-(N-(4-Acetamido-3,5-dichlorobenzyl)carbamimidoyl)-2-(5-cyano-1H-indol-1-yl)acetamide], for the setting “Table 2”, the IC50 turned out to be 57 ± 4 nM and the inhibition at 100 µM amounted to 99.5%.

Regarding `N=C(NCc1cc(F)cc(F)c1)NC(=O)Cn1ccc2ccccc21` [Compound 15, N-(N-(3,5-Difluorobenzyl)carbamimidoyl)-2-(1H-indol-1-yl)acetamide], the “Inhibition ratio (100 μM)” value was found to be 52.38%.

Take `N=C(NCc1cccc(I)c1)NC(=O)Cn1ccc2ccccc21` [Compound 13, 2-(1H-Indol-1-yl)-N-(N-(3-iodobenzyl)carbamimidoyl)acetamide]: the “Inhibition ratio (100 μM)” value was found to be 85.24%.

`CCNc1c(Cl)cc(CNC(=N)NC(=O)Cn2ccc3ccccc32)cc1Cl` [Compound 20, N-(N-(3,5-Dichloro-4-(ethylamino)benzyl)carbamimidoyl)-2-(1H-indol-1-yl)acetamide]: the “Inhibition ratio (100 μM)” value was found to be 46.8%.

In the case of `CC(=O)Nc1c(Cl)cc(CNC(=N)NC(=O)Cn2ccc3ccc(Br)cc32)cc1Cl` [Compound 23, N-(N-(4-Acetamido-3,5-dichlorobenzyl)carbamimidoyl)-2-(6-bromo-1H-indol-1-yl)acetamide], for the setting “Table 2”, the IC50 is 79 ± 8 nM and the inhibition at 100 µM is 100%.

In the case of `COc1ccc2ccn(CC(=O)NC(=N)NCc3cc(Cl)c(NC(C)=O)c(Cl)c3)c2c1` [Compound 27, N-(N-(4-Acetamido-3,5-dichlorobenzyl)carbamimidoyl)-2-(6-methoxy-1H-indol-1-yl)acetamide], for the setting “Table 2”, the IC50 was determined as 224 ± 33 nM and the inhibition at 100 µM came out at 103%.

`N=C(NCc1ccccc1)NC(=O)Cn1ccc2ccccc21` [Compound 12]: the “Inhibition ratio (100 μM)” value was 40.69%.

Turning to `N=C(N)NC(=O)Cn1ccc2ccccc21` [Compound 5, N-Carbamimidoyl-2-(1H-indol-1-yl)acetamide], the “Inhibition ratio (100 μM)” value was found to be 77.00% and the inhibition ratio is given as 77%.

As to `CC(=O)Nc1ccc(CNC(=N)NC(=O)Cn2ccc3ccccc32)cc1` [Compound 18, N-(N-(4-Acetamidobenzyl)carbamimidoyl)-2-(1H-indol-1-yl)acetamide], the “Inhibition ratio (100 μM)” value stood at 35.3%.

Consider `N=C(NCc1cccc(OC(F)(F)F)c1)NC(=O)Cn1ccc2ccccc21` [Compound 16, 2-(1H-Indol-1-yl)-N-(N-(3-(trifluoromethoxy)benzyl)carbamimidoyl)acetamide], for which the “Inhibition ratio (100 μM)” value was 66.51%.

As to `CC(=O)Nc1c(Cl)cc(CNC(=N)NC(=O)Cn2ccc3ccccc32)cc1Cl` [Compound 19, N-(N-(4-Acetamido-3,5-dichlorobenzyl)carbamimidoyl)-2-(1H-indol-1-yl)acetamide], the concentration for half-maximal inhibition (IC50) was found to be 1010 ± 91 nM and the “Inhibition ratio (100 μM)” value stood at 100%. The inhibition at 100 µM (Table 2) stood at 100%.

The term IC50 denotes the concentration that inhibits the measured activity by half. As a reminder, the inhibition is the drop in the measured response relative to a control, in per cent.
